Test results from paper PMC7744527, “The structure of SeviL, a GM1b/asialo-GM1 binding R-type lectin from the mussel Mytilisepta virgata” (Scientific Reports, 2020).
Numbering of substitutions follows the chain as printed. Numbers in names are those of the source. Like-named read-outs stand apart in the source and are kept apart here.

How the values were obtained:
[1] = target: T1, SeviL (Mytilisepta virgata, UniProt A0A646QV53); test: biochemical; assay type: binding
T1 construct: This vector directs expression of full-length SeviL carrying a thrombin-cleavable hexa-histidine tag; hexa-histidine tag (thrombin-cleavable; leaves residual GSH before the native Met) (N, cleaved yes); made in house; host or cells: E. coli BL21(DE3)
Method: (§1) Experimental details are given in Methods/Isothermal Titration Calorimetry. […] ITC experiments were repeated with the monomer mutant SeviL (Q12R/F126K). […] Errors in Kd for the native protein and monomer were determined from triplicate experiments. To produce a stronger signal and lower noise, further experiments were attempted with the concentrations of the native protein and ligand increased ten-fold. […] Different stereo views of the interaction between protein and ligand are shown in SFigure 11.
(§2) Figure 5 (A) A thermogram produced by injecting 1 mM asialo-GM1 saccharide into 50 μ M SeviL. The experiment was repeated three times, each thermogram being fitted to a one-site model (shown as a black line). Dissociation constants were calculated as weighted averages, and errors were calculated as weighted standard deviations, using the reciprocal chi-square values of each individual fit as weights.
Experiments were performed using a MicroCal iTC200 (GE) instrument. The sample of SeviL (in 50 mM phosphate buffer, pH 6.8, 0.1 M NaCl) was placed in the cell, and equilibrated at 298 K. The selected ligand was dissolved in the same buffer, and injected into the protein sample (with 20 injections of 10 μ L each), allowing the baseline to stabilise between injections. The data were analysed using the manufacturer’s software, assuming a simple single site model, to yield a Kd value and chi-square value from each experiment. […] Asialo-GM1 and GM1b were used at 1 mM concentration, each experiment being repeated three times, and errors were determined as the weighted standard deviation of these three values. Higher concentrations of protein and ligand were used in the case of these longer ligands.

[2] = target: T2, SeviL (Q12R/F126K) (Mytilisepta virgata, UniProt A0A646QV53, F126K/Q12R); test: Isothermal titration calorimetry with monomer mutant SeviL (Q12R/F126K); assay type: binding; conditions: 1 mM ligand titrated into 50 μM SeviL (Q12R/F126K), one-site model, triplicate
T2 construct: This vector directs expression of full-length SeviL carrying a thrombin-cleavable hexa-histidine tag; hexa-histidine tag (thrombin-cleavable); made in house; host or cells: E. coli BL21(DE3)
Method: as §1, §2
Experiments were performed using a MicroCal iTC200 (GE) instrument. […] The data were analysed using the manufacturer’s software, assuming a simple single site model, to yield a Kd value and chi-square value from each experiment. […] Asialo-GM1 and GM1b were used at 1 mM concentration, each experiment being repeated three times, and errors were determined as the weighted standard deviation of these three values. […]

[3] = target: T1, SeviL; conditions: 52 oligosaccharides; cited from earlier work
[4] = target: the molecule itself; test: AUC; sedimentation velocity, 50,000 rpm, 293 K, 50 mM potassium phosphate pH 6.8, 0.1 M NaCl, absorbance at 280 nm, c(s)/c(M) analysis with SEDFIT; sample concentration printed as 1.0 ug/ml
[5] = test system: human red cells; set-up: method as in PMID 31769916; conditions: in the presence of calcium; cited from earlier work
[6] = test system: trypsinised and glutaraldehyde-fixed rabbit erythrocytes; test: Hemagglutination assay; assay type: cell-based; conditions: 10 mM CaCl2, 0.25% Triton X-100, 1 h room temperature
Method: Figure 6 Hemagglutination of red blood cells by SeviL. 20 μ L of a two-fold dilution of SeviL (initially 10 mg/mL) were serially diluted and added to the same volume of a red cell suspension containing 0.25% Triton-X100 and 10 mM calcium chloride, and incubated for 1 h at room temperature. Appearance of a dot indicates no agglutination. The number over the wells indicates the protein dilution factor. Top row: dimer SeviL, middle row: dimer SeviL (D39H), and bottom row: monomer SeviL (Q12R/F126K). Column C is a negative control with no added lectin.
Hemagglutination assay was performed in 96-well U-shape plates as described previously. 20 μ L each protein (10 μ g/ml) in TBS was mixed with 20 μ L of a 1% suspension (with TBS; v/v) of trypsinised and glutaraldehyde-fixed rabbit erythrocytes in addition to 20 μ L of TBS containing 0.25% (w/v) Triton X-100 and 10 mM CaCl2. The plate was incubated at room temperature for 1 h, and the formation of a sheet (agglutination-positive) or dot (agglutination-negative) was observed and scored against the lectin titre.

[7] = test system: mammalian carcinoma cells expressing asialo-GM1; set-up: method as in PMID 31769916; conditions: cited from earlier work

T2 sequence (A0A646QV53 whole entry Q12R/F126K): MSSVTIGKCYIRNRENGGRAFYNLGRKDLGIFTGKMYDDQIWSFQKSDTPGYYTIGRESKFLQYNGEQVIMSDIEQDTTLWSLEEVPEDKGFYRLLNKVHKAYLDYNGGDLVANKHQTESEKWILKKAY

OC[C@H]1OC(O)[C@H](O)[C@@H](O)[C@@H]1O (stereo partly drawn) [Glucose]
interaction with the protein (ITC) ([1]; small sugar ligand): not seen to interact with the protein at all

CC(=O)N[C@H]1[C@H](O[C@@H]2[C@H](O)[C@@H](O)[C@H](O[C@H]3[C@H](O)[C@@H](O)C(O)O[C@@H]3CO)O[C@@H]2CO)O[C@H](CO)[C@H](O)[C@@H]1O[C@@H]1O[C@H](CO)[C@H](O)[C@H](O)[C@H]1O (stereo partly drawn) [asialo-GM1, Gal β (1-3)GalNAc β (1-4)Gal β (1-4)Glc]
Kd [2]: 100 µM
binding in glycan array [3]: bind
Kd ([1]; 1 mM ligand injected into 50 μM SeviL, 298 K, pH 6.8, one-site model, triplicate, weighted average, read-out: Kd): 100 µM
Kd ([1]; protein and ligand concentrations increased ten-fold (1 mM SeviL/10 mM asialo-GM1; 0.8 mM SeviL/12 mM GM1b), model of non-interacting sites, read-out: Kd (exothermic and endothermic binding site, each)): ~100 µM

CC(=O)NC1C(O)CC(OC2C(O)C(CO)OC(OC3C(O)C(CO)OC(OC4C(O)C(CO)OC(OC5C(CO)OC(OC6C(CO)OC(O)C(O)C6O)C(O)C5O)C4O)C3NC(C)=O)C2O)(C(=O)O)OC1C(O)C(O)CO (stereo not drawn) [SSEA-4, Neu5Ac α (2-3)Gal β (1-3)GalNAc β (1-3)Gal α (1-4)Gal β (1-4)Glc]
binding in glycan array [3]: weak binding

OC[C@H]1O[C@@H](O[C@H]2[C@H](O)[C@@H](O)C(O)O[C@@H]2CO)[C@H](O)[C@@H](O)[C@H]1O (mixture of isomers) [lactose]
Kd [1]: 8000 to 12000 µM

B1: SeviL (natural protein, Mytilisepta virgata)
chain: MSSVTIGKCYIQNRENGGRAFYNLGRKDLGIFTGKMYDDQIWSFQKSDTPGYYTIGRESKFLQYNGEQVIMSDIEQDTTLWSLEEVPEDKGFYRLLNKVHKAYLDYNGGDLVANKHQTESEKWILFKAY
notes: some N-terminal residues remain after removal of the histidine tag by thrombin; also called recombinant SeviL; wild-type SeviL; source: recombinant, expressed in bacteria, purified (details in Supplementary Information); not shown: histidine tag, N-terminal, cleaved
stoichiometry N [4]: 2

B2: SeviL: recombinant 129 residue dimeric β-trefoil R-type lectin from the mussel Mytilisepta virgata (protein)
chain: B1 chain
modifications: left off: histidine tag, N-terminal, cleaved
notes: recombinant 129 residue dimeric β-trefoil R-type lectin from the mussel Mytilisepta virgata
hemagglutination [5]: cause hemagglutination
hemagglutination [6]: can trigger hemagglutination at low concentration
effect on carcinoma cells [7]: activates apoptotic pathways, causing cell death

B3: SeviL (Q12R/F126K): SeviL double mutant at the dimer interface, almost entirely monomeric, retains sugar binding (protein)
chain: B1 chain with Q12R, F126K
modifications: left off: histidine tag, N-terminal, cleaved
hemagglutination [6]: Hemagglutination is also lost
